Experimental data reported in patent publication US8518957B2, “Methanocarba adenosine derivatives, pharmaceutical compositions, and method of reducing intraocular pressure” (The United States of America, as represented by the …, priority 2009, dated 2013).
Where two headings read alike, the source gives them in different places.

What was measured:
[1] = biological target: T1, hA2AAR (Homo sapiens, UniProt P29274); test: Radioligand binding at human A2A AR ([3H]CGS21680, membranes of HEK-293 cells)
T1 construct: expressed in transfected cells
Method: (§1) [^3H](2-[p-(2-Carboxyethyl)phenyl-ethylamino]-5′-N-ethylcarboxamido-adenosine) (37, [^3H]CGS21680, 40.5 Ci/mmol) and [^125I]N^6-(4-amino-3-iodobenzyl)adenosine-5′-N-methyluronamide (38, [^125I]I-AB-MECA, 2200 Ci/mmol) were purchased from Perkin-Elmer Life and Analytical Science (Boston, Mass.). Test compounds were prepared as 5 mM stock solutions in DMSO and stored frozen at −20° C.
(§2) CHO cells stably expressing the recombinant hA1 and hA3Rs, and HEK-293 cells stably expressing the hA2AAR were cultured in Dulbecco's modified Eagle medium (DMEM) and F12 (1:1) supplemented with 10% fetal bovine serum, 100 units/mL penicillin, 100 μg/mL streptomycin, and […] glutamine. In addition, 800 μg/mL geneticin was added to the A2A media, while 500 μg/mL hygromycin was added to the A1 and A3 media. After harvesting, cells were homogenized and suspended in PBS. Cells were then centrifuged at 240 g for 5 min, and the pellet was resuspended in 50 mM Tris-HCl buffer (pH 7.5) containing 10 mM MgCl2. The suspension was homogenized and was then ultra-centrifuged at 14,330 g for 30 min at 4° C. The resultant pellets were resuspended in Tris buffer, incubated with adenosine deaminase (3 units/mL) for 30 min at 37° C. The suspension was homogenized with an electric homogenizer for 10 sec, pipetted into 1 mL vials and then stored at −80° C. until the binding experiments were conducted. The protein concentration was measured using the BCA Protein Assay Kit from Pierce Biotechnology, Inc. (Rockford, Ill.).
(§3) Into each tube in the binding assay was added 50 μL of increasing concentrations of the test ligand in Tris-HCl buffer (50 mM, pH 7.5) containing 10 mM MgCl2, 50 μl, of the appropriate agonist radioligand, and finally 100 μL of membrane suspension. For the A1AR (22 μg of protein/tube) the radioligand used was [^3H]36 (final concentration of 3.5 nM). For the A2AAR (20 μg/tube) the radioligand used was [^3H]37 (10 nM). For the A3AR (21 μg/tube) the radioligand used was [^125I]38 (0.34 nM). Nonspecific binding was determined using a final concentration of 10 μM unlabeled 36 diluted with the buffer. The mixtures were incubated at 25° C. for 60 min in a shaking water bath. Binding reactions were terminated by filtration through Brandel GF/B filters under a reduced pressure using a M-24 cell harvester (Brandel, Gaithersburg, Md.). Filters were washed three times with 3 mL of 50 mM ice-cold Tris-HCl buffer (pH 7.5). Filters for A1 and A2AAR binding were placed in scintillation vials containing 5 mL of Hydrofluor scintillation buffer and counted using a Perkin Elmer Liquid Scintillation Analyzer (Tri-Carb 2810TR). Filters for A3AR binding were counted using a Packard Cobra II γ-counter. The Ki values were determined using GraphPad Prism for all assays.
(§4) [^3H](2-[p-(2-carboxyethyl)phenyl-ethylamino]-5′-N-ethylcarboxamido-adenosine) ([^3H]CGS21680, 40.5 Ci/mmol) and [^125I]N^6-(4-amino-3-iodobenzyl)adenosine-5′-N-methyluronamide ([^125I]I-AB-MECA, 2200 Ci/mmol) were purchased from PerkinElmer. Test compounds were prepared as 5-mM stock solutions in DMSO and stored frozen at −20° C.
(§5) Chinese hamster ovary (CHO) cells were generated by stably expressing the recombinant hA1 and hA3 and human embryonic kidney (HEK) 293 cells stably expressing the hA2AAR in DMEM and F12 (1:1) supplemented with 10% fetal bovine serum, 100 units/mL penicillin, 100 μg/mL streptomycin, and 2 μmol/mL glutamine. 800 μg/mL Geneticin were added to the A2A media and 500 μg/mL hygromycin to the A1 and A3 media. After harvesting the cells, they were homogenized with an electric homogenizer for 10 sec, pipetted them into 1-mL vials, and then stored them at −80° C. until the binding experiments were conducted. The protein concentration was measured with a BCA Protein Assay Kit from Pierce Biotechnology (Rockford, Ill.). […]

[2] = biological target: T2, human A3AR (Homo sapiens, UniProt P0DMS8); test: Radioligand binding at human A3 AR ([125I]I-AB-MECA, membranes of CHO cells)
T2 construct: expressed in transfected cells
T2 sequence (P0DMS8 1-318): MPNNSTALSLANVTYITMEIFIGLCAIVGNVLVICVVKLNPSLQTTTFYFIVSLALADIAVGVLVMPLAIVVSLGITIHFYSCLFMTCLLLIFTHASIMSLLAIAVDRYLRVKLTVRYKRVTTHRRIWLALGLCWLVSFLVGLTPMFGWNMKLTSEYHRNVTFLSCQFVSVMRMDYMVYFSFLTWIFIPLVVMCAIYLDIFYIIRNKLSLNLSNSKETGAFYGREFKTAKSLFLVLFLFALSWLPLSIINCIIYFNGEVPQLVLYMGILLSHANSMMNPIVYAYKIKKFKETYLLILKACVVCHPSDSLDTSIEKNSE
Method: Test compounds were prepared as 5 mM stock solutions in DMSO and stored frozen at −20° C.
as §2
as §3, with “For the A1AR (22 μg of protein/tube) the radioligand used was [^3H]36 (final concentration of 3.5 nM).” left out, “For the A3AR (21 μg/tube) the radioligand used was [^125I]38 (0.34 nM).” left out, “Filters for A1 and A2AAR binding were placed in scintillation vials containing 5 mL of Hydrofluor scintillation buffer and counted using a Perkin Elmer Liquid Scintillation Analyzer (Tri-Carb 2810TR).” left out
Test compounds were prepared as 5-mM stock solutions in DMSO and stored frozen at −20° C.
Chinese hamster ovary (CHO) cells were generated by stably expressing the recombinant hA1 and hA3 and human embryonic kidney (HEK) 293 cells stably expressing the hA2AAR in DMEM and F12 (1:1) supplemented with 10% fetal bovine serum, 100 units/mL penicillin, 100 μg/mL streptomycin, and 2 μmol/mL glutamine. 800 μg/mL Geneticin were added to the A2A media and 500 μg/mL hygromycin to the A1 and A3 media. After harvesting the cells, they were homogenized with an electric homogenizer for 10 sec, pipetted them into 1-mL vials, and then stored them at −80° C. until the binding experiments were conducted. The protein concentration was measured with a BCA Protein Assay Kit from Pierce Biotechnology (Rockford, Ill.).
Each tube in the binding assay contained 50 μL of increasing concentrations of the test ligand in Tris-HCl buffer (50 mM, pH 7.5) containing 10 mM MgCl2, 50 μL of the appropriate agonist radioligand, and 100 μL membrane suspension, added sequentially. […] For the A2AAR (20 μg/tube), the radioligand [^3H]CGS21680 was used (−10 nM). […] The mixtures were incubated at 25° C. for 60 min in a shaking water bath. The binding reactions were terminated by filtration through Brandel GF/B filters under a reduced pressure with a M-24 cell harvester (Brandel, Gaithersburg, Md.). Filters were washed three times with 3 mL 50-mM ice-cold Tris-HCl buffer (pH 7.5). […] The filters were counted for A3AR binding with a Packard Cobra II γ-counter (PerkinElmer). The Ki values were determined with GraphPad Prism for all assays.

[3] = biological target: T2, human A3AR; test: Cyclic AMP accumulation assay: inhibition of forskolin-stimulated cyclic AMP production in AR-transfected CHO cells; assay type: cell-based; conditions: at 10 μM, in comparison to the maximal effect of full agonist NECA at 10 μM
Method: Intracellular cyclic AMP levels were measured with a competitive protein binding method. […] CHO cells that expressed the recombinant human A3AR were harvested by trypsinization. After centrifugation and resuspended in medium, cells were planted in 24-well plates in 1.0 mL medium. After 24 h, the medium was removed and cells were washed three times with 1 mL DMEM, containing 50 mM HEPES, pH 7.4. […] After 45 min forskolin (10 μM) was added to the medium, and incubation was continued for an additional 15 min. […] The cell lysate was resuspended and stored at −20° C. For determination of cyclic AMP production, protein kinase A (PKA) was incubated with [^3H]cyclic AMP (2 nM) in K2HPO4/EDTA buffer (K2HPO4, 150 mM; EDTA, 10 mM), 20 μL of the cell lysate, and 30 μL 0.1 M HCl or 50 μL of cyclic AMP solution (0-16 pmol/200 μL for standard curve). Bound radioactivity was separated by rapid filtration through Whatman GF/C filters and washed once with cold buffer. Bound radioactivity was measured by liquid scintillation spectrometry.
Bound radioactivity was separated by rapid filtration through Whatman GF/C filters and washed the filters once with cold buffer. Bound radioactivity was measured with liquid scintillation spectrometry.

[4] = biological target: T3, human A1 AR (Homo sapiens, UniProt P30542); conditions: cited from earlier work
T3 construct: expressed in transfected cells
T3 sequence (P30542 1-326): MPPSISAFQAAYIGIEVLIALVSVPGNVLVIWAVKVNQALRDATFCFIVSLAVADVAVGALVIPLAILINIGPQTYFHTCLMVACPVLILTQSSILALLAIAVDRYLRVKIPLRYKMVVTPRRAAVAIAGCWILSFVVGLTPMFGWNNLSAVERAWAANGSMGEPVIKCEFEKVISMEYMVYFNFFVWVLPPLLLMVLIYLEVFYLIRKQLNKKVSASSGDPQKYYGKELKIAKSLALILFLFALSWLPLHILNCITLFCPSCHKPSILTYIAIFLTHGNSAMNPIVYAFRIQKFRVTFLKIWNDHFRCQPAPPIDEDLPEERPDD

[5] = biological target: T1, hA2AAR; conditions: cited from earlier work
[6] = biological target: T2, human A3AR; conditions: at 10 μM, relative to NECA 10 μM; values from Tosh et al.; cited from earlier work
[7] = biological target: T3, human A1 AR; test: Radioligand binding at human A1 AR ([3H]NECA, membranes of CHO cells)
Method: as §1, §2, §3, §4, §5

[8] = biological target: T2, human A3AR; conditions: model compounds; values from Tosh et al. and Melman et al.; read-out: Affinity (Ki, nM), A3; cited from earlier work
[9] = inhibition of radioligand binding at 10 μM, values from Tosh et al.
[10] = Example 7, agonist radioligand [125I]47, read-out: AR Affinity Ki, nM, A3
[11] = at 10 μM, model compounds, values from Tosh et al. and Melman et al.

T1 sequence (P29274 whole entry): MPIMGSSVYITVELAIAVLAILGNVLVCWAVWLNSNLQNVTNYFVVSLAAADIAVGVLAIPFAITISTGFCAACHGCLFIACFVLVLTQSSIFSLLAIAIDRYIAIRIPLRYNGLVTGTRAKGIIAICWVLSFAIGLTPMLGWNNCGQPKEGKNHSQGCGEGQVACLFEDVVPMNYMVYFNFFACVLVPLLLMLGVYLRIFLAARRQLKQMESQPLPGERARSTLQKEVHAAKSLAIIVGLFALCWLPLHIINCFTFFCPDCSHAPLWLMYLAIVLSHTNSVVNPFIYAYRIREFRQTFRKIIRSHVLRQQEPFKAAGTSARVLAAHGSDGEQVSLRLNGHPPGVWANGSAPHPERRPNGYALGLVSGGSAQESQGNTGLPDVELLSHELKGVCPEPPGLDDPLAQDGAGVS

C#CCCCC#Cc1nc(NCc2cccc(Cl)c2)c2ncn(C3C(O)C(O)C4(C(=O)NC)CC34)c2n1 (stereo not drawn) [Compound 8, (1′S, 2′R, 3′S, 4′S, 5′S)-4′-[6-(3-Chlorobenzylamino)-2-(1,6-heptadiynyl)-9H-purin-9-yl]-2′,3′-dihydroxybicyclo[3.1.0]hexane-1′-carboxylic acid N-methylamide]
Ki ([1]; [3H]37, HEK293 cells, read-out: Affinity (Ki, nM), A2A): 4330 ± 500 nM | Ki ([2]; [125I]38, CHO cells, read-out: Affinity (Ki, nM), A3): 23.6 ± 3.9 nM | % Inhibition of cAMP formation at hA3 AR [3]: 18.3 ± 7.6%

CNC(=O)C12CC1C(n1cnc3c(NCc4cccc(Cl)c4)nc(C#CCCC(=O)NCCNC(=O)CCCCC4SCC5NC(=O)NC54)nc31)C(O)C2O (stereo not shown) [Compound 2]
% inhibition, A1 [4, 9]: (1 ± 1%) | % inhibition, A2A [5, 9]: (51 ± 2%) | % Inhibition of cAMP formation at hA3 AR [6]: 84.5 ± 12.0%

C#CCCCCC#Cc1cccc(CNc2nc(Cl)nc3c2ncn3[C@H]2[C@H](O)[C@H](O)[C@]3(C(=O)NC)C[C@H]23)c1 [Compound 201, (1S,2R,3S,4R,5S)-4-[2-Chloro-6-{3-(1,7-octadiynyl)benzylamino}-9H-purin-9-yl]-2,3-dihydroxybicyclo[3.1.0]hexane-1-carboxylic acid N-methylamide]
Ki ([7]; Example 7, agonist radioligand [3H]45, read-out: AR Affinity Ki, nM, A1): 1490 ± 230 nM | inhibition at 10 µM [1]: 19.7% | Ki [2, 10]: 113 ± 24 nM

O=[N+]([O-])c1cc(-n2cc(CCCCC#Cc3cccc(CNc4nc(Cl)nc5c4ncn5[C@H]4[C@H](O)[C@H](O)[C@@H]5C[C@@H]54)c3)nn2)ccc1F [Compound 215, (1R,2R,3S,4R,5S)-4-(2-Chloro-6-(3-(6-(1-(4-fluoro-3-nitrophenyl)-1H-1,2,3-triazol-4-yl)hex-1-ynyl)benzylamino)-9H-purin-9-yl)-bicyclo[3.1.0]hexane-2,3-diol]
inhibition at 10 µM [7]: 24.3% | inhibition at 10 µM [1]: 8.2% | Ki [2, 10]: 933 ± 720 nM

CNC(=O)C12CC1C(n1cnc3c(NCc4cccc(C#CCCCCC(=O)NCCNC(C)=O)c4)nc(Cl)nc31)C(O)C2O (stereo not shown) [Compound 104c]
Ki ([4]; model compounds, values from Tosh et al. and Melman et al., read-out: Affinity (Ki, nM), A1): 181 nM | % inhibition, A2A [5, 11]: (80%) | Ki [8]: 228 nM

CCCC#Cc1nc(NCc2cccc(Cl)c2)c2ncn(C3C(O)C(O)C4(C(=O)NC)CC34)c2n1 (stereo not shown) [Compound 104b]
% inhibition, A2A [5, 11]: (80%)

O=[N+]([O-])c1cc(-n2cc(CCCCCC#Cc3cccc(CNc4nc(Cl)nc5c4ncn5[C@H]4[C@H](O)[C@H](O)[C@@H]5C[C@@H]54)c3)nn2)ccc1F [Compound 216, (1R,2R,3S,4R,5S)-4-(2-Chloro-6-(3-(7-(1-(4-fluoro-3-nitrophenyl)-1H-1,2,3-triazol-4-yl)hept-1-ynyl)benzylamino)-9H-purin-9-yl)bicyclo[3.1.0]hexane-2,3-diol]
inhibition at 10 µM [7]: 29.5% | inhibition at 10 µM [1]: 18% | Ki [2, 10]: 521 ± 250 nM
